Results from ChEMBL document CHEMBL5724914, “Linking interpersonal differences in gut microbiota composition and drug biotransformation activity” (2024).

Assays:
[1] = human gut metagenome, 24 h, 2 µM
[2] = The drug is tested on WLS-220 corresponding to human gut metagenome with ENA study accession number: PRJEB37062 and ENA sample accession number: ERS12561769 for biotransformation under anaerobic condition. The drug concentrations were measured over 9 timepoints collected between 0 and 24 hours of incubation by liquid-chromatography-coupled mass spectrometry (LC–MS); details: 2 µM
[3] = human gut metagenome, 24 h, 2 µM; remark: listed apart in the source
[4] = human gut metagenome, 24 h, 2 µM; remark: listed apart in the source
[5] = human gut metagenome, 24 h, 2 µM; remark: listed apart in the source
[6] = human gut metagenome, 24 h, 2 µM; remark: listed apart in the source
[7] = The drug is tested on WLS-006 corresponding to human gut metagenome with ENA study accession number: PRJEB37062 and ENA sample accession number: ERS12561741 for biotransformation under anaerobic condition. The drug concentrations were measured over 9 timepoints collected between 0 and 24 hours of incubation by liquid-chromatography-coupled mass spectrometry (LC–MS); details: 2 µM
[8] = human gut metagenome, 24 h, 2 µM; remark: listed apart in the source
[9] = human gut metagenome, 24 h, 2 µM; remark: listed apart in the source
[10] = The drug is tested on WLS-086 corresponding to human gut metagenome with ENA study accession number: PRJEB37062 and ENA sample accession number: ERS12561752 for biotransformation under anaerobic condition. The drug concentrations were measured over 9 timepoints collected between 0 and 24 hours of incubation by liquid-chromatography-coupled mass spectrometry (LC–MS); details: 2 µM
[11] = human gut metagenome, 24 h, 2 µM; remark: listed apart in the source
[12] = The drug is tested on Z-002 corresponding to rabbit gut metagenome with ENA study accession number: PRJEB37062 and ENA sample accession number: ERS12561802 for biotransformation under anaerobic condition. The drug concentrations were measured over 9 timepoints collected between 0 and 24 hours of incubation by liquid-chromatography-coupled mass spectrometry (LC–MS); details: 2 µM
[13] = The drug is tested on Z-003 corresponding to pig gut metagenome with ENA study accession number: PRJEB37062 and ENA sample accession number: ERS12561803 for biotransformation under anaerobic condition. The drug concentrations were measured over 9 timepoints collected between 0 and 24 hours of incubation by liquid-chromatography-coupled mass spectrometry (LC–MS); details: 2 µM
[14] = The drug is tested on Z-028 corresponding to mouse gut metagenome with ENA study accession number: PRJEB37062 and ENA sample accession number: ERS12561827 for biotransformation under anaerobic condition. The drug concentrations were measured over 9 timepoints collected between 0 and 24 hours of incubation by liquid-chromatography-coupled mass spectrometry (LC–MS); details: 2 µM
[15] = The drug is tested on Z-014 corresponding to rat gut metagenome with ENA study accession number: PRJEB37062 and ENA sample accession number: ERS12561814 for biotransformation under anaerobic condition. The drug concentrations were measured over 9 timepoints collected between 0 and 24 hours of incubation by liquid-chromatography-coupled mass spectrometry (LC–MS); details: 2 µM
[16] = The drug is tested on Z-008 corresponding to metagenome with ENA study accession number: PRJEB37062 and ENA sample accession number: ERS12561808 for biotransformation under anaerobic condition. The drug concentrations were measured over 9 timepoints collected between 0 and 24 hours of incubation by liquid-chromatography-coupled mass spectrometry (LC–MS); details: 2 µM
[17] = The drug is tested on Z-026 corresponding to metagenome with ENA study accession number: PRJEB37062 and ENA sample accession number: ERS12561825 for biotransformation under anaerobic condition. The drug concentrations were measured over 9 timepoints collected between 0 and 24 hours of incubation by liquid-chromatography-coupled mass spectrometry (LC–MS); details: 2 µM
Also: call rule not given here.

| SMILES | Bacterial Biotransformation [1] | Bacterial Biotransformation [2] | Bacterial Biotransformation [3] | Bacterial Biotransformation [4] | Bacterial Biotransformation [5] | Bacterial Biotransformation [6] | Bacterial Biotransformation [7] | Bacterial Biotransformation [8] | Bacterial Biotransformation [9] | Bacterial Biotransformation [10] | Bacterial Biotransformation [11] | Bacterial Biotransformation [12] | Bacterial Biotransformation [13] | Bacterial Biotransformation [14] | Bacterial Biotransformation [15] | Bacterial Biotransformation [16] | Bacterial Biotransformation [17] |
| --- | --- | --- | --- | --- | --- | --- | --- | --- | --- | --- | --- | --- | --- | --- | --- | --- | --- |
| OC(CCN1CCCCC1)(c1ccccc1)C1CC2C=CC1C2 (stereo not drawn) [BIPERIDEN] | Compound NOT metabolized | Compound NOT metabolized | Compound metabolized | Compound metabolized | Compound NOT metabolized | Compound NOT metabolized | Compound metabolized | Compound NOT metabolized | Compound metabolized | Compound metabolized | Compound metabolized |  |  |  |  |  |  |
| CC(=O)O[C@]1(C(C)=O)CC[C@H]2[C@@H]3C=C(Cl)C4=CC(=O)[C@@H]5C[C@@H]5[C@]4(C)[C@H]3CC[C@@]21C [CYPROTERONE ACETATE] | Compound metabolized | Compound metabolized | Compound metabolized | Compound NOT metabolized | Compound metabolized | Compound metabolized | Compound metabolized | Compound metabolized | Compound metabolized | Compound metabolized | Compound metabolized | Compound metabolized | Compound metabolized |  |  |  |  |
| C#C[C@]1(O)CC[C@H]2[C@@H]3CCC4=Cc5oncc5C[C@]4(C)[C@H]3CC[C@@]21C [DANAZOL] |  | Compound metabolized |  |  |  | Compound metabolized | Compound metabolized |  | Compound metabolized | Compound metabolized |  |  | Compound metabolized | Compound metabolized | Compound NOT metabolized | Compound metabolized | Compound metabolized |
| CN1C[C@H](C(=O)N[C@]2(C)O[C@@]3(O)[C@@H]4CCCN4C(=O)[C@H](Cc4ccccc4)N3C2=O)C=C2c3cccc4[nH]cc(c34)C[C@H]21.CN1C[C@H](C(=O)N[C@]2(C)O[C@@]3(O)[C@@H]4CCCN4C(=O)[C@H](Cc4ccccc4)N3C2=O)C=C2c3cccc4[nH]cc(c34)C[C@H]21.O=C(O)C(O)C(O)C(=O)O [ERGOTAMINE TARTRATE] | Compound metabolized |  | Compound NOT metabolized | Compound metabolized | Compound metabolized | Compound metabolized | Compound metabolized | Compound metabolized | Compound metabolized | Compound metabolized | Compound metabolized |  |  |  |  | Compound NOT metabolized |  |
| COC(=O)C1=C(C)NC(C)=C(C(=O)OC(C)C)C1c1cccc2nonc12 (stereo not drawn) [ISRADIPINE] | Compound metabolized | Compound metabolized | Compound metabolized | Compound NOT metabolized | Compound metabolized | Compound metabolized | Compound NOT metabolized | Compound metabolized | Compound metabolized | Compound metabolized | Compound metabolized | Compound metabolized | Compound metabolized |  |  |  |  |
| CN(C(=O)CN(CCO)CC(=O)N(C)C(C)(C)Cc1ccccc1)C(C)(C)Cc1ccccc1 [OXETHAZAINE] | Compound metabolized | Compound metabolized | Compound metabolized | Compound metabolized | Compound metabolized | Compound metabolized | Compound metabolized | Compound metabolized | Compound metabolized | Compound metabolized | Compound metabolized |  |  |  |  |  |  |
| CN1CCN(CC/C=C2/c3ccccc3Sc3ccc(S(=O)(=O)N(C)C)cc32)CC1 [THIOTHIXENE] | Compound metabolized | Compound metabolized | Compound NOT metabolized | Compound metabolized | Compound metabolized | Compound metabolized | Compound metabolized | Compound metabolized | Compound metabolized | Compound metabolized | Compound metabolized |  |  |  |  |  |  |
| Cc1ccc(/C(=C\CN2CCCC2)c2ccccn2)cc1 [TRIPROLIDINE] | Compound NOT metabolized | Compound NOT metabolized | Compound NOT metabolized | Compound NOT metabolized | Compound NOT metabolized | Compound NOT metabolized | Compound metabolized | Compound NOT metabolized | Compound NOT metabolized | Compound NOT metabolized | Compound metabolized | Compound NOT metabolized | Compound metabolized | Compound NOT metabolized | Compound NOT metabolized | Compound NOT metabolized | Compound NOT metabolized |
| CS(=O)(=O)O.O.O.O.O=C1Cc2cc(CCN3CCN(c4nsc5ccccc45)CC3)c(Cl)cc2N1 [ZIPRASIDONE MESYLATE] | Compound NOT metabolized | Compound metabolized | Compound NOT metabolized | Compound NOT metabolized | Compound metabolized | Compound metabolized | Compound metabolized | Compound metabolized | Compound metabolized | Compound metabolized | Compound metabolized |  |  |  |  |  |  |
